Broadly, the IC50 is the midpoint of a concentration-inhibition curve.

Assay [1] addresses T1, NK1 receptor (Cavia porcellus, UniProt P30547). In words: Antagonism of iodinated tachykinin (125I-substance P) binding to NK1 receptor in guinea pig lungs. Set-up: tissue Keystone Biologicals, Cleveland, Ohio; host or cells: guinea pig lung membranes. The note with it: guinea pig lungs; mean of several experiments; read-out: NK-1 IC50. Here is the method:
ANTAGONISM OF IODINATED TACHYKININ BINDING TO NK1 AND NK2 RECEPTORS BY PUTATIVE ANTAGONISTS
The NK1 receptor affinity of proposed tachykinin antagonists was evaluated in guinea pig lungs (Keystone Biologicals, Cleveland, Ohio), affinity for the NK2 receptor evaluated in HSKR-1 cells (which are mouse 3T3 fibroblasts expressing the human jejunal NK2 receptor) and NK-3 receptor affinity was evaluated in freshly collected guinea pig cerebral cortex. Tissues or cells were homogenized with a Polytron in 15 volumes of 50 mM Tris-HCl buffer (pH 7.4, 4° C.) and centrifuged. The pellet was resuspended in Tris-HCl buffer and was centrifuged; the pellet was washed twice by resuspension. The final pellet was resuspended at a concentration of 40 mg/ml for tissues (guinea pig lung and cerebral cortex) and 20 mg/ml for cells in incubation buffer and remained at room temperature for at least 15 min prior to use. Receptor binding was initiated by addition of 250 ul membrane preparation in duplicate to 0.1 nM of the following radioligands: ^125 I-Bolton Hunter Lys-3 labeled substance P; ^125 iodohistidyl-1-neurokinin A; and ^125 I-Bolton Hunter labeled Lys-4 eledoisin in a final volume of 500 ul of buffer containing 50 mM Tris-HCl (pH 7.4 at room temperature), 0.1% bovine serum albumin, 2 mM MnCl2, 40 ug/ml bacitracin, 4 µg/ml leupeptin and chymostatin, 1 μM thiorphan and various doses of the putative tachykinin antagonists. Incubations were performed at room temperature for 90 min (NK1 receptor assays) or 2 hr (NK2 and NK3 receptor assays); binding was terminated by addition of 50 mM Tris-HCl buffer (pH 7.4, 4° C.) and filtration under vacuum through GF/B filters presoaked with 0.1% polyethyleneimine (NK1 receptor assays) or 0.5% bovine serum albumin (NK2 and NK3 receptor assays). Filter bound radioactivity was quantitated in a gamma counter. Nonspecific binding was defined as binding in the presence of 1 μM substance P, neurokinin A, or eledoisin. Specific binding was calculated by subtracting nonspecific binding from total binding. Competition of iodinated SP, NKA, or eledoisin binding by test compounds or standards was expressed as a percentage of this maximum competition. IC50 values (concentration required to inhibit 50% of receptor binding) were generated for each of the test compounds by nonlinear regression using an iterative curve fitting program (GraphPAD Inplot, San Diego, Calif.).

For assay [2], the target named is T1, NK1 receptor. Nature of the assay: Antagonism of SP-induced plasma protein extravasation in guinea pig trachea. In kind it is in vivo. Also noted: SP-induced plasma protein extravasation in guinea pig trachea; from tissue; host or cells: living guinea pig; trachea and primary bronchi. The note with it: i.v.; Example 3 versus Example 20A. Here is the method: ANTAGONISM OF SP-INDUCED PLASMA PROTEIN EXTRAVASATION IN GUINEA PIG TRACHEA
SP-induced protein leakage through postcapillary venules was assessed by measuring Evans Blue dye accumulation in guinea pig trachea. Animals were anesthetized with pentobarbital then injected with Evans Blue dye (20 mg/kg, i.v., prepared in 0.9% NaCl solution). One minute after dye administration, the antagonist was administered (i.v.) followed by SP (0.3 nmole/kg, i.v.) and, after 5 min, excess dye removed from the circulation by transcardiac perfusion with 50 ml 0.9% NaCl solution. The trachea and primary bronchi were removed, blotted dry and weighed. Dye quantitation was performed spectrophotometrically ([…]) after extracting tissues in formamide for 24 hr at 50° C. Values were subtracted from background (dye only, no agonist). ED50 (dose of compound which inhibits SP-induced plasma protein extravasation by 50%) was calculated from linear regression analysis.

The next assay has as its system NK2 receptor. Nature of the assay: Antagonism of NKA aerosol induced respiratory effects in conscious guinea pigs. In kind it is in vivo, guinea pig. The note with it: 20 min prior to NKA aerosol (0.05%); for DYSPNEA ONSET: mean and SEM. The method, then: (§1) ANTAGONISM OF NKA AND CAPSAICIN INDUCED R[…] IN CONSCIOUS GUINEA PIGS
(§2) In vivo experiments were performed using male Duncan Hartley guinea pigs (250-350 g). Changes in conscious breathing patterns were monitored in four animals simultaneously using modified whole body plethysmography consisting of four small plexiglass boxes each connected to a reference box via Validyne DP 45-16 differential pressure transducers. The 4 boxes were equipped with an air supply line (also used for aerosol delivery) and an exhaust air line. Supply and exhaust lines were of the same length and narrow bore and arose from a common supply chamber and vented to a common exhaust chamber. This system was used to ensure that fluctuations in supply air and atmospheric pressure would remain in phase and be eliminated from the net signal by the differential pressure transducers. The analog pressure signals were digitalized via a Data Translation DT2821 A to D board. Data were collected at a rate of 100 samples/second/animal. Each cycle of pressure change was analyzed using the following parameters: rising and falling slope determined between minimum and maximum pressures, the ratio of rising over falling slope, and the magnitude of the change between initial trough pressure and peak cycle pressure. Using these values (and observing the animals) the pressure cycles were characterized into normal breaths, forced exhalations (apparent by abdominal heaving), significant respiratory events (SREs; usually coughs, less often sneezes or gasps which were characterized by transient, extremely large pressure increases which were distinguishable from noise) and movement/noise with a PCAT 286 running a System V UNIX operating system. Dyspnea was defined as a significant, sustained increase in plethysmograph pressure which was associated with an observable shift to labored breathing in the animal.
(§3) During the course of a typical experiment in which airway responsiveness to various bronchoconstricting agents was examined, aerosols were delivered for 19 min (0.33 ml/min) using a DeVilbiss Ultraneb 99 ultrasonic nebulizer and animals monitored during this time. Prior to nebulization, 1 min of resting breathing was collected to establish a baseline pressure. […] The vehicle for nebulization of all bronchoconstrictive agents was phosphate buffered saline (pH 7.4) which elicited no r[…] itself. Putative tachykinin antagonists were administered either (i.v.) 20 min prior to onset of aerosol exposure or orally 1 hour prior to onset (to guinea pigs after an overnight fast).
Table 6 illustrates the effects of the compounds of Example 3; Example 20A; and Example 5A on r[…] induced by NKA aerosol. […] These effects were dose dependent i.e. the higher the dose of compound, the greater attenuation of NKA-mediated effects.

Another assay has as its system NK1 and NK2 receptors. In words: Antagonism of capsaicin aerosol induced respiratory effects in conscious guinea pigs. In kind it is in vivo, guinea pig. As to conditions: for SRE NUMBER (coughs/gasps): 19 min capsaicin exposure; for SRE NUMBER (coughs/gasps) / DYSPNEA ONSET / MAXIMUM PRESSURE INCREASE: mean and SEM; for DYSPNEA INCIDENCE / DYSPNEA ONSET / MAXIMUM PRESSURE INCREASE: capsaicin aerosol 0.001%. The method, then: as §1, §2, §3
Capsaicin aerosol is known to promote release of the tachykinins SP and NKA from sensory nerves in the airways of guinea pigs which may then act upon NK1 and NK2 receptors, respectively to elicit r[…]. The ability of the compounds of Example 3A; and Example 20A to attenuate capsaicin-induced r[…], shown in Table 7a, is inferred from their ability to reduce incidence of dyspnea, prolong the onset of the response and reduce the number of coughs/gasps which occur during aerosol exposure.

Structures can show the parent of a compound that is named as a salt.

T1 sequence (P30547 whole entry): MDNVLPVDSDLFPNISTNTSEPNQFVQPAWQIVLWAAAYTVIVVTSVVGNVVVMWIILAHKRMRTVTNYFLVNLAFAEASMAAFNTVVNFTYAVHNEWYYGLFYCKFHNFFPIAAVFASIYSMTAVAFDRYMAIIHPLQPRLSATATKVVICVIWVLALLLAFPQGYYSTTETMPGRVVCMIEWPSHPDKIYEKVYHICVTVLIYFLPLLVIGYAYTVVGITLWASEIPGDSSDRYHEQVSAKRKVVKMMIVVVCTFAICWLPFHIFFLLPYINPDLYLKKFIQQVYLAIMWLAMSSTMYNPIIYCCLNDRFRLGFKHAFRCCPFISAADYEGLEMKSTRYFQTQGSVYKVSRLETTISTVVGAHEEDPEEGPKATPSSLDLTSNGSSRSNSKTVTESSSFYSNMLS

Regarding `NC(=O)C1(c2ccccc2)CCN(CCC2(c3ccc(Cl)c(Cl)c3)CCN(C(=O)c3ccccc3)C2)CC1` (stereo not drawn) [Example 1, 1-[2-[3-(3,4-dichloro-phenyl)-1-benzoyl-pyrrolidin-3-yl]-ethyl]-4-phenyl-piperidine-4-carboxylic acid amide], the IC50 on NK1 receptor [1] came out at 270 nM.
On to `COc1ccccc1C(=O)N1CCC(CCN2CCC(C(N)=O)(c3ccccc3)CC2)(c2ccc(Cl)c(Cl)c2)C1` (stereo not drawn) [Example 13, 1-[2-[3-(3,4-dichloro-phenyl)-1-(2-methoxy-benzoyl)-pyrrolidin-3-yl]-ethyl]-4-phenyl-piperidine-4-carboxylic acid amide], for which, at NK1 receptor [1], the IC50 is 74 nM.
For `COc1cc(C(=O)N2CCC(CCN3CCC(C(N)=O)(c4ccccc4)CC3)(c3ccc(Cl)c(Cl)c3)C2)cc(OC)c1OC` (single isomer, unassigned; (+)) [Example 20A, (+)-1-[2-[3-(3,4-dichloro-phenyl)-1-(3,4,-trimethoxy-benzoyl)-pyrrolidin-3-yl]-ethyl]-4-phenyl-piperidine-4-carboxylic acid amide hydrochloride], the “relative potency as NK-1 receptor antagonists (in words)” value on NK1 receptor [2] is reported as “equipotent”. Also, the “DYSPNEA INCIDENCE” value in the assay with NK2 receptor (1 mg/kg) is given as 100%; in the assay with NK2 receptor (5 mg/kg) it was 90%; with NK2 receptor (10 mg/kg) it was 70%; in the assay on NK1 and NK2 receptors (1 mg/kg intravenous), 77.8%; in the assay with NK1 and NK2 receptors (2.5 mg/kg intravenous) it was 100%; in the assay with NK1 and NK2 receptors (5 mg/kg intravenous), 44.4%. The “DYSPNEA INCIDENCE” value with NK1 and NK2 receptors (10 mg/kg intravenous) came out at 55.6%. The “DYSPNEA ONSET” value in the assay on NK2 receptor (1 mg/kg) amounted to 451 ± 30 s; with NK2 receptor (5 mg/kg), 706 ± 82 s; in the assay with NK2 receptor (10 mg/kg) it was 829 ± 105 s; in the assay with NK1 and NK2 receptors (1 mg/kg intravenous), 331 ± 22 s; in the assay with NK1 and NK2 receptors (2.5 mg/kg intravenous), 426 ± 57 s; in the assay with NK1 and NK2 receptors (5 mg/kg intravenous), 597 ± 186 s. Further, the “DYSPNEA ONSET” value with NK1 and NK2 receptors (10 mg/kg intravenous) came out at 592 ± 71 s. Moreover, the “SRE NUMBER (coughs/gasps)” value came out at 9.9 ± 2.7 with NK1 and NK2 receptors (1 mg/kg intravenous); 8.3 ± 1.6 with NK1 and NK2 receptors (2.5 mg/kg intravenous); 4.4 ± 1.9 in the assay with NK1 and NK2 receptors (5 mg/kg intravenous); 3.3 ± 1.1 with NK1 and NK2 receptors (10 mg/kg intravenous). Further, the “MAXIMUM PRESSURE INCREASE” value with NK1 and NK2 receptors (1 mg/kg intravenous) was 1.0 ± 0.1 mmH2 O; in the assay with NK1 and NK2 receptors (2.5 mg/kg intravenous), 0.6 ± 0.1 mmH2 O; in the assay on NK1 and NK2 receptors (5 mg/kg intravenous), 0.8 ± 0.06 mmH2 O; in the assay on NK1 and NK2 receptors (10 mg/kg intravenous) it was 0.8 ± 0.1 mmH2 O. Besides, the “inhibition of endogenous tachykinins released by capsaicin aerosol (in words)” value in the assay with NK1 and NK2 receptors (guinea pig, in vivo) is reported as “inhibit the endogenous tachykinins released by capsaicin aerosol”.
With `COc1ccccc1CC(=O)N1CCC(CCN2CCC(C(N)=O)(c3ccccc3)CC2)(c2ccc(Cl)c(Cl)c2)C1` (stereo not drawn) [Example 4, 1-(2-[3-(3,4-dichloro-phenyl)-1-[2-(2-methoxy-phenyl)-acetyl]-pyrrolidin-3-yl]-ethyl)-4-phenyl-piperidine-4-carboxylic acid amide], the IC50 at NK1 receptor [1] came to 48 nM.
